Measured values: EP2266984A1, “Pyrido[2,3-d]pyrimidines as Wnt antagonists for treatment of cancer and arthritis” (Deutsches Krebsforschungszentrum Stiftung des öffentlichen …, priority 2009, dated 2010)

Legend:
[1] = test system: HS68; experiment: Cell line specific cytotoxicity, count of Hoechst labeled nuclei, HS68 fibroblasts; type: cell-based, human; conditions: for Normalized cell count (HS68): normal cells, at least 72 hr
Procedure: For examination of cell line-specific cytotoxicity, compounds were applied to human colorectal cancer cells (HCT116, denoted (1); SW480, denoted (2); Dld-1, denoted (3)) and human fibroblasts (HFF-1, denoted (4); HS-68, denoted (5)), cultured in Mc Coy's (1) and Dulbecco's Modified Eagles Medium ((2)-(5)), supplemented with 10% ((1)-(3)) and 20% ((4), (5)) fetal calf serum and 1% penicillin/streptomycin. Cells were grown in T75 flasks at 37 °C, 5% CO2 and trypsinized when 60-80% confluent by adding 2 ml of 0.25% Trypsin-EDTA solution. Cells were then re-suspended into culture medium yielding approx. 750 cells, suspended in 45 microl medium, were plated into each well of a black 384-well plate for fluorescence imaging experiments. […] Compound incubation was terminated by (a) fixation and (b) permeabilisation of cells, followed by (c) fluorescence labeling of cell nuclei for cytometric quantification or by immunocytochemistry for microscopic evaluation of cell morphology. The three steps were performed by replacing the solution of the previous step in each well of a 384-well plate by (a) 30 microl PBS (phosphate buffered saline) containing 5% PFA (paraformaldehyde), (b) 30 microl PBS containing 0.2% TritonX-100 and (c) 10 microl PBS containing Hoechst-33342 for cytometry or Hoechst-33342, FITC-(fluorescein isothiocyanate-)labeled alpha-tubulin antibodies and TRITC-(tetramethylrhodamine isothiocyanate-)labeled phalloidin for microscopy. Solutions were incubated for 15 (a,b) and 30 min (c) in the dark at room temperature. Cells were washed twice between each step with 30 microl PBS. The assay system was miniaturized and adapted to automated workflow using liquid-handling robotics.
Cell line-specific cytotoxicity was quantified by counting the number of Hoechst labeled nuclei per well of a 384-well plate using a plate cytometer. Data obtained with the cytometer was analysed using standard data analysis software.
Identified hits were further evaluated by visual inspection of fluorescence micrographs obtained from imaging using a conventional fluorescence microscope.

[2] = test system: Wnt signalling pathway; experiment: Wnt-sensitive reporter gene assay (6xTCF-luciferase, pTOP-FLASH) in Hek293T cells; type: cell-based; conditions: for Normalized Wnt pathway inhibitory activity: 24 h; for IC50: Homo sapiens, HEK-293T, 6xTCF-luciferase, 5nM - 100 microM, 24 h incubation, read-out: IC50 of the Wnt pathway inhibitory activity
Procedure: To screen for small-molecule modulators of the Wnt signalling pathway, a reporter gene based assay describing the modulation of the TCF4 transcription factor was used. More specifically 4000 Hek293T cells were seeded into 384 high density plates. 24h after seeding a Wnt-sensitive reporter (6xTCF-luciferase (Firefly) (pTOP-FLASH; "Armadillo coactivates transcription driven by the product of the Drosophila segment polarity gene dTCF", Cell, 1997, 88(6), pages 789-99)) and constitutively expressed control reporter (Renilla luciferase pCMV-RL) were transfected into Hek293T. Wnt signaling was stimulated by cotransfecting mouse Wnt1, mouse Frizzled 8 and human LRP6 according to "Casein kinase 1 gamma couples Wnt receptor activation to cytoplasmic signal transduction", Nature, 2005, 438(7069), pages 867-872. 24 h after pathway stimulation compounds were added at a concentration of 10 microM and allowed to incubate for 24 h. For the evaluation of the IC50 the compound was applied in increasing concentrations yielding final concentrations per well of 5nM - 100 microM.

[3] = test system: human colon carcinoma cells HCT116; experiment: Antiproliferative activity against HCT116, count of Hoechst labeled nuclei; type: cell-based; conditions: for Normalized cell count (HCT 116): HCT116 colon carcinoma cells
Procedure: For examination of cell line-specific cytotoxicity, compounds were applied to human colorectal cancer cells (HCT116, denoted (1); SW480, denoted (2); Dld-1, denoted (3)) and human fibroblasts (HFF-1, denoted (4); HS-68, denoted (5)), cultured in Mc Coy's (1) and Dulbecco's Modified Eagles Medium ((2)-(5)), supplemented with 10% ((1)-(3)) and 20% ((4), (5)) fetal calf serum and 1% penicillin/streptomycin. Cells were grown in T75 flasks at 37 °C, 5% CO2 and trypsinized when 60-80% confluent by adding 2 ml of 0.25% Trypsin-EDTA solution. Cells were then re-suspended into culture medium yielding approx. 750 cells, suspended in 45 microl medium, were plated into each well of a black 384-well plate for fluorescence imaging experiments. 24 - 36 hr later 5 microl compound solution (100 microM compound dissolved in ultra pure water containing 1% DMSO), were added to achieve a final concentration of 10 microM and were incubated for at least 72 hr. Compound incubation was terminated by (a) fixation and (b) permeabilisation of cells, followed by (c) fluorescence labeling of cell nuclei for cytometric quantification or by immunocytochemistry for microscopic evaluation of cell morphology. The three steps were performed by replacing the solution of the previous step in each well of a 384-well plate by (a) 30 microl PBS (phosphate buffered saline) containing 5% PFA (paraformaldehyde), (b) 30 microl PBS containing 0.2% TritonX-100 and (c) 10 microl PBS containing Hoechst-33342 for cytometry or Hoechst-33342, FITC-(fluorescein isothiocyanate-)labeled alpha-tubulin antibodies and TRITC-(tetramethylrhodamine isothiocyanate-)labeled phalloidin for microscopy. Solutions were incubated for 15 (a,b) and 30 min (c) in the dark at room temperature. Cells were washed twice between each step with 30 microl PBS. The assay system was miniaturized and adapted to automated workflow using liquid-handling robotics.
Cell line-specific cytotoxicity was quantified by counting the number of Hoechst labeled nuclei per well of a 384-well plate using a plate cytometer. Data obtained with the cytometer was analysed using standard data analysis software. […]
The examination of the antiproliferative activity against human colon carcinoma cells HCT116 was carried out in analogy to example 203. […] Compounds of the present invention have potent antiproliferative acivity against human colon carcinoma cells as shown for HCT116 in Table 6.

| IC50 [2] [µM] | Compound | Normalized cell count (HS68) ([1]; 0.005 microM) | Normalized cell count (HS68) ([1]; 0.015 microM) | Normalized cell count (HS68) ([1]; 0.046 microM) | Normalized cell count (HS68) ([1]; 0.137 microM) | Normalized cell count (HS68) ([1]; 0.412 microM) | Normalized cell count (HS68) ([1]; 1.235 microM) | Normalized cell count (HS68) ([1]; 3.704 microM) | Normalized cell count (HS68) ([1]; 11.111 microM) | Normalized cell count (HS68) ([1]; 33.333 microM) | Normalized cell count (HS68) ([1]; 100.000 microM) | Normalized Wnt pathway inhibitory activity ([2]; 0.005 microM) | Normalized Wnt pathway inhibitory activity ([2]; 0.137 microM) | Normalized Wnt pathway inhibitory activity ([2]; 0.412 microM) | Normalized Wnt pathway inhibitory activity ([2]; 1.235 microM) | Normalized Wnt pathway inhibitory activity ([2]; 3.704 microM) | Normalized Wnt pathway inhibitory activity ([2]; 11.111 microM) | Normalized Wnt pathway inhibitory activity ([2]; 33.333 microM) | Normalized Wnt pathway inhibitory activity ([2]; 100.000 microM) | Normalized cell count (HCT 116) ([3]; 0.005 microM) | other results |
| --- | --- | --- | --- | --- | --- | --- | --- | --- | --- | --- | --- | --- | --- | --- | --- | --- | --- | --- | --- | --- | --- |
| 1.6 ± 0.6 | CCOC(=O)c1c(C)nc2c(c(N3CCN(Cc4ccccc4F)CC3)nc(=O)n2-c2ccccc2)c1-c1ccccc1 [Example 150] | 1 | 1.018 | 1.012 | 0.9701 | 0.9865 | 0.9917 | 1.106 | 1.081 | 1.034 | 0.6334 | 0.8990 | 1.0310 | 0.8660 | 0.6448 | 0.3170 | 0.2795 | 0.1573 | 0.1708 | 1 | Normalized Wnt pathway inhibitory activity ([2]; 0.015 microM): 0.8480; Normalized Wnt pathway inhibitory activity ([2]; 0.046 microM): 0.8763; Normalized cell count (HCT 116) ([3]; 0.015 microM): 1.076; Normalized cell count (HCT 116) ([3]; 0.046 microM): 1.153; Normalized cell count (HCT 116) ([3]; 0.137 microM): 1.2; Normalized cell count (HCT 116) ([3]; 0.412 microM): 1.087; Normalized cell count (HCT 116) ([3]; 1.235 microM): 1.105; Normalized cell count (HCT 116) ([3]; 3.704 microM): 0.8597; Normalized cell count (HCT 116) ([3]; 11.111 microM): 0.4595; Normalized cell count (HCT 116) ([3]; 33.333 microM): 0.1363; Normalized cell count (HCT 116) ([3]; 100.000 microM): 0.1263 |
| 1.6 ± 0.9 | CCOC(=O)c1c(C)nc2c(c(N3CCN(C/C=C/c4ccccc4)CC3)nc(=O)n2-c2ccccc2)c1-c1ccccc1 [Example 153, 7-Methyl-2-oxo-1,5-diphenyl-4-[4-((E)-3-phenyl-allyl)-piperazin-1-yl]-1,2-dihydro-pyrido[2,3-d]pyrimidine-6-carboxylic acid ethyl ester] | 1 | 1.0005 | 0.9849 | 0.9755 | 0.9186 | 0.9639 | 0.9349 | 0.9432 | 0.826 | 0.2108 | 0.8000 | 0.9813 | 0.8173 | 0.5333 | 0.2410 | 0.1023 | 0.0518 | 0.0132 | 1 | Effect on normal cells (HS-68) ([1]; 10 microM, HS-68 cell line): not affected; Normalized Wnt pathway inhibitory activity ([2]; 0.046 microM): 1.0868; Normalized cell count (HCT 116) ([3]; 0.015 microM): 0.9124; Normalized cell count (HCT 116) ([3]; 0.046 microM): 0.9327; Normalized cell count (HCT 116) ([3]; 0.137 microM): 0.9534; Normalized cell count (HCT 116) ([3]; 0.412 microM): 0.8371; Normalized cell count (HCT 116) ([3]; 1.235 microM): 0.7255; Normalized cell count (HCT 116) ([3]; 3.704 microM): 0.538; Normalized cell count (HCT 116) ([3]; 11.111 microM): 0.1546; Normalized cell count (HCT 116) ([3]; 33.333 microM): 0.09126; Normalized cell count (HCT 116) ([3]; 100.000 microM): 0.1143; IC50 ([3]; Homo sapiens, HCT-116, HCT116, read-out: IC50 of the antiproliferation activity): 3.1 ± 0.6 µM |
| 1.9 ± 0.9 | CCOC(=O)c1c(C)nc2c(c(N3CCN(C(c4ccc(F)cc4)c4ccc(F)cc4)CC3)nc(=O)n2-c2ccccc2)c1-c1ccccc1 [Example 157] | 1 | 1.092 | 1.081 | 1.128 | 1.062 | 1.132 | 1.18 | 1.167 | 1.2661 | 1.294 | 0.9895 | 0.6610 | 1.2550 | 0.6557 | 0.3888 | 0.3733 | 0.1933 | 0.1651 | 1 | Normalized Wnt pathway inhibitory activity ([2]; 0.015 microM): 1.0328; Normalized cell count (HCT 116) ([3]; 0.015 microM): 1.101; Normalized cell count (HCT 116) ([3]; 0.046 microM): 1.031; Normalized cell count (HCT 116) ([3]; 0.137 microM): 1.151; Normalized cell count (HCT 116) ([3]; 0.412 microM): 1.072; Normalized cell count (HCT 116) ([3]; 1.235 microM): 0.9399; Normalized cell count (HCT 116) ([3]; 3.704 microM): 0.8282; Normalized cell count (HCT 116) ([3]; 11.111 microM): 0.7256; Normalized cell count (HCT 116) ([3]; 33.333 microM): 0.3684; Normalized cell count (HCT 116) ([3]; 100.000 microM): 0.2263 |
